Square brackets hold non-standard residues; d marks the D form. Peptide text beside a SMILES is read from it. * marks the point of attachment. ξ: configuration not given here. ξF = NC(Cc1ccccc1)C(=O)O; Cbz = O=C(OCc1ccccc1)*

Test [1] concerns the target T1, Calpain-1 catalytic subunit (Homo sapiens, UniProt P07384).
T1 sequence (P07384 whole entry): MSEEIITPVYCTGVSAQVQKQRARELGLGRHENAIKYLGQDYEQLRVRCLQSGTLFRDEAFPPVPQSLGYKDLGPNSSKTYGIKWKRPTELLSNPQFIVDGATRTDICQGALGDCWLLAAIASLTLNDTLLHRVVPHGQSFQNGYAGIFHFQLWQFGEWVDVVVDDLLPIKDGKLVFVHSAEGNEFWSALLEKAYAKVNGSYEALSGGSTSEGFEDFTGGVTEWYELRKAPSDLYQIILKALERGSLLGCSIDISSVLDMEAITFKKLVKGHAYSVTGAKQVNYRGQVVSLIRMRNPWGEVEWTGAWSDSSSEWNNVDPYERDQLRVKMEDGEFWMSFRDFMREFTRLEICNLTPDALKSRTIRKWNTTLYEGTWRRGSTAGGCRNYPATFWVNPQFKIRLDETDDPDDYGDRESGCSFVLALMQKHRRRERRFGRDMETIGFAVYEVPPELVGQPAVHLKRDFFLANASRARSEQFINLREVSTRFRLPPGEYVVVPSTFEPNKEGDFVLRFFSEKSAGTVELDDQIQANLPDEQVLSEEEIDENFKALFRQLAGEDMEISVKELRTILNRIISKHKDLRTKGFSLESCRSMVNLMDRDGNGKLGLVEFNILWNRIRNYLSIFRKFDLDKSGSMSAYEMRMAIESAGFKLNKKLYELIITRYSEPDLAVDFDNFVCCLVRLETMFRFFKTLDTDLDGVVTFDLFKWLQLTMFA
The test can be described thus: Inhibition of Suc-Leu-Tyr-AMC binding to human mu-calpain from erythrocytes. Type of test: biochemical.

For another test, the target named is Cathepsin B (Homo sapiens, UniProt P07858). Briefly: Inhibition of human Cathepsin B.
The species entered for a further test is Mus musculus. The test can be described thus: Inhibitory activity of compound was tested for lethal convulsions induced by NMDA in mice. It is filed as functional.
Test [2] is described as follows: Inhibition of calpain-mediated pp60src degradation in platelets. Type of test: functional, Homo sapiens.

`CC(C)CC(NC(=O)C1CCN(C(=O)/C=C/c2ccccc2)CC1)C(=O)C(N)=O` (stereo not given): the Ki (commonly a measure of affinity in units of concentration, obtained from inhibition or displacement) in test [1] was found to be 1350 nM.
The same measure, in the same setting: next, `NC(=O)C(=O)C(Cc1ccccc1)NC(=O)C1CCN(C(=O)c2cnc3ccccc3c2)CC1` (stereo not given): 670 nM.
As to `NC(=O)C(=O)C(Cc1ccccc1)NC(=O)C1CCN(C(=O)/C=C/c2ccncc2)CC1` (stereo not given), the Ki in test [1] is 13500 nM.
Still for that read-out and setting: next, `NC(=O)C(=O)C(Cc1ccccc1)NC(=O)C1CCN(S(=O)(=O)c2ccc3ccccc3c2)CC1` (stereo not given): 450 nM.
For the molecule `NC(=O)C(=O)C(Cc1ccccc1)NC(=O)C1CCN(C(=O)c2cc3ccccc3s2)CC1` (stereo not given), the Ki on Cathepsin B stood at 3200 nM; in test [1], 9 nM. Besides, it took a dose of 1 mg/kg to reach the 50% effect level in the test listed under Mus musculus (ED50).
In the case of `NC(=O)C(=O)C(Cc1ccccc1)NC(=O)C1CCN(C(=O)c2ccccc2)CC1` (stereo not given), the Ki in test [1] was found to be 560 nM.
As to `NC(=O)C(=O)C(Cc1ccccc1)NC(=O)C1CCN(Cc2ccc3ccccc3c2)CC1` (stereo not given), in test [1], affinity was put at a Ki of 13600 nM.
`CCNC(=O)C(=O)C(Cc1ccccc1)NC(=O)C1CCN(S(=O)(=O)c2ccc3ccccc3c2)CC1` (stereo not given) came in with an inhibition constant Ki in test [1] of 800000 nM.
Same read-out and setting: next, `O=C(NCCCN1CCOCC1)C(=O)C(Cc1ccccc1)NC(=O)C1CCN(S(=O)(=O)c2ccc3ccccc3c2)CC1` (stereo not given): 810 nM; `CCC(NC(=O)C1CCN(C(=O)/C=C/c2ccccc2)CC1)C(=O)C(N)=O` (stereo not given): 33000 nM; `O=C(NCCCN1CCOCC1)C(=O)C(Cc1ccccc1)NC(=O)C1CCN(C(=O)c2ccc3ccccc3c2)CC1` (stereo not given): 960 nM.
Take `NC(=O)C(=O)C(Cc1ccccc1)NC(=O)C1CCN(C(=O)c2ccc3ccccc3c2)CC1` (stereo not given): the Ki at Cathepsin B amounted to 7300 nM; in test [1], 30 nM. Moreover, in the test filed under Mus musculus, the ED50 (in general, the dose that gives a 50% effect, or the effect in half of the subjects) is 1.3 mg/kg. Moreover, the IC50 (usually the point on the concentration scale where inhibition reaches its midpoint) in test [2] came to 1800 nM.
Regarding `NC(=O)C(=O)C(Cc1ccccc1)NC(=O)C1CCN(C(=O)/C=C/c2ccccc2)CC1` (stereo not given), the affinity in test [1] corresponds to a Ki of 460 nM.
In the case of `NC(=O)C(=O)C(Cc1ccccc1)NC(=O)C1CCN(C(=O)c2ccc3ncccc3c2)CC1` (stereo not given), the Ki in test [1] was 160 nM.
In test [2], `CC(C)[C@H](NC(=O)OCc1ccccc1)C(=O)NC(C=O)Cc1ccccc1` (stereo partly drawn) (Cbz-Val-[ξF]-aldehyde) yielded an IC50 of 700 nM.

Values taken from ChEMBL document CHEMBL1132743, “Synthesis and biological evaluation of novel piperidine carboxamide derived calpain inhibitors” (Bioorg Med Chem Lett, 2000).
